# Measurements: PubChem BioAssay (NCI)
#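 48-hour exposure; five concentrations; linearly interpolated endpoints. At the TGI there is no net growth.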
# Tests used:
# Test in all cases: inhibition of tumour cell growth, NCI panel, 48 h
# SK-MEL-2 melanoma = tested on: SK-MEL-2 melanoma
# MCF7 breast = tested on: MCF7 breast
# OVCAR-4 ovarian = tested on: OVCAR-4 ovarian
# HCT-15 colon = tested on: HCT-15 colon
# SK-MEL-5 melanoma = tested on: SK-MEL-5 melanoma
# UO-31 renal = tested on: UO-31 renal
# SNB-19 CNS = tested on: SNB-19 CNS
# SK-MEL-28 melanoma = tested on: SK-MEL-28 melanoma
# SR leukemia = tested on: SR leukemia
# UACC-257 melanoma = tested on: UACC-257 melanoma
# A498 renal = tested on: A498 renal
# HCC-2998 colon = tested on: HCC-2998 colon
# DU-145 prostate = tested on: DU-145 prostate
# ACHN renal = tested on: ACHN renal
# T-47D breast = tested on: T-47D breast
# BT-549 breast = tested on: BT-549 breast
# MALME-3M melanoma = tested on: MALME-3M melanoma
# TK-10 renal = tested on: TK-10 renal
# IGROV1 ovarian = tested on: IGROV1 ovarian
# OVCAR-3 ovarian = tested on: OVCAR-3 ovarian
# SN12C renal = tested on: SN12C renal
# NCI/ADR-RES ovarian = tested on: NCI/ADR-RES ovarian
# M14 melanoma = tested on: M14 melanoma
# 786-0 renal = tested on: 786-0 renal
# HOP-92 NSCLC = tested on: HOP-92 NSCLC
# RXF 393 renal = tested on: RXF 393 renal
# SF-295 CNS = tested on: SF-295 CNS
# SK-OV-3 ovarian = tested on: SK-OV-3 ovarian
# SF-539 CNS = tested on: SF-539 CNS
# PC-3 prostate = tested on: PC-3 prostate
# LOX IMVI melanoma = tested on: LOX IMVI melanoma
# UACC-62 melanoma = tested on: UACC-62 melanoma
# COLO 205 colon = tested on: COLO 205 colon
# A549 NSCLC = tested on: A549 NSCLC
# CCRF-CEM leukemia = tested on: CCRF-CEM leukemia
# OVCAR-8 ovarian = tested on: OVCAR-8 ovarian
# MDA-MB-435 = tested on: MDA-MB-435
# K-562 leukemia = tested on: K-562 leukemia
# SF-268 CNS = tested on: SF-268 CNS
# EKVX NSCLC = tested on: EKVX NSCLC
# MOLT-4 leukemia = tested on: MOLT-4 leukemia
# SW-620 colon = tested on: SW-620 colon
# HCT-116 colon = tested on: HCT-116 colon
# RPMI-8226 leukemia = tested on: RPMI-8226 leukemia
# HT29 colon = tested on: HT29 colon
# OVCAR-5 ovarian = tested on: OVCAR-5 ovarian
# MDA-N = tested on: MDA-N
# HL-60(TB) leukemia = tested on: HL-60(TB) leukemia
# CAKI-1 renal = tested on: CAKI-1 renal
# HS 578T breast = tested on: HS 578T breast
# KM12 colon = tested on: KM12 colon
# NCI-H522 lung = tested on: NCI-H522 lung
# HOP-62 NSCLC = tested on: HOP-62 NSCLC
# NCI-H23 lung = tested on: NCI-H23 lung
# NCI-H460 lung = tested on: NCI-H460 lung
# SNB-75 CNS = tested on: SNB-75 CNS
# U251 CNS = tested on: U251 CNS
# MDA-MB-231 breast = tested on: MDA-MB-231 breast
# NCI-H226 lung = tested on: NCI-H226 lung
structure (smiles),measurement,setting,value
CCN(C(C)=O)c1cnc(/C=N/NC(N)=S)c2ccccc12,TGI,SK-MEL-2 melanoma,> 100 µM
same,TGI,MCF7 breast,> 23.8 µM
same,TGI,OVCAR-4 ovarian,> 100 µM
same,TGI,HCT-15 colon,> 100 µM
same,TGI,SK-MEL-5 melanoma,> 67.1 µM
same,TGI,UO-31 renal,7.85 µM
same,TGI,SNB-19 CNS,> 100 µM
same,TGI,SK-MEL-28 melanoma,> 100 µM
same,TGI,SR leukemia,> 65.8 µM
same,TGI,UACC-257 melanoma,> 100 µM
same,TGI,A498 renal,> 91.6 µM
same,TGI,HCC-2998 colon,> 100 µM
same,TGI,DU-145 prostate,> 25 µM
same,TGI,ACHN renal,> 22.4 µM
same,TGI,T-47D breast,> 100 µM
same,TGI,BT-549 breast,> 31.1 µM
same,TGI,MALME-3M melanoma,> 100 µM
same,TGI,TK-10 renal,> 100 µM
same,TGI,IGROV1 ovarian,> 100 µM
same,TGI,OVCAR-3 ovarian,> 100 µM
same,TGI,SN12C renal,> 57.6 µM
same,TGI,NCI/ADR-RES ovarian,58.6 µM
same,TGI,M14 melanoma,> 30.7 µM
same,TGI,786-0 renal,> 26.6 µM
same,TGI,HOP-92 NSCLC,> 100 µM
same,TGI,RXF 393 renal,> 100 µM
same,TGI,SF-295 CNS,> 68.9 µM
same,TGI,SK-OV-3 ovarian,> 100 µM
same,TGI,SF-539 CNS,13.6 µM
same,TGI,PC-3 prostate,> 100 µM
same,TGI,LOX IMVI melanoma,10.1 µM
same,TGI,UACC-62 melanoma,11 µM
same,TGI,COLO 205 colon,> 100 µM
same,TGI,A549 NSCLC,> 88.3 µM
same,TGI,CCRF-CEM leukemia,> 100 µM
same,TGI,OVCAR-8 ovarian,> 34.6 µM
same,TGI,MDA-MB-435,> 100 µM
same,TGI,K-562 leukemia,> 100 µM
same,TGI,SF-268 CNS,> 100 µM
same,TGI,EKVX NSCLC,> 100 µM
same,TGI,MOLT-4 leukemia,> 31.5 µM
same,TGI,SW-620 colon,> 100 µM
same,TGI,HCT-116 colon,> 100 µM
same,TGI,RPMI-8226 leukemia,> 100 µM
same,TGI,HT29 colon,> 100 µM
same,TGI,OVCAR-5 ovarian,> 100 µM
same,TGI,MDA-N,> 100 µM
same,TGI,HL-60(TB) leukemia,> 28.5 µM
same,TGI,CAKI-1 renal,> 51.9 µM
same,TGI,HS 578T breast,> 100 µM
same,TGI,KM12 colon,> 100 µM
same,TGI,NCI-H522 lung,> 36.2 µM
same,TGI,HOP-62 NSCLC,> 60.1 µM
same,TGI,NCI-H23 lung,> 100 µM
same,TGI,NCI-H460 lung,> 39.1 µM
same,TGI,SNB-75 CNS,> 100 µM
same,TGI,U251 CNS,> 100 µM
same,TGI,MDA-MB-231 breast,> 100 µM
same,TGI,NCI-H226 lung,> 100 µM
Nc1[nH]c(=S)c2c(N)n[nH]c2c1C(=O)Nc1ccccc1,TGI,SK-MEL-2 melanoma,> 100 µM
same,TGI,MCF7 breast,> 100 µM
same,TGI,OVCAR-4 ovarian,> 100 µM
same,TGI,HCT-15 colon,> 100 µM
same,TGI,SK-MEL-5 melanoma,> 100 µM
same,TGI,UO-31 renal,> 100 µM
same,TGI,SNB-19 CNS,> 100 µM
same,TGI,SK-MEL-28 melanoma,> 100 µM
same,TGI,SR leukemia,> 100 µM
same,TGI,UACC-257 melanoma,> 100 µM
same,TGI,A498 renal,> 100 µM
same,TGI,HCC-2998 colon,> 100 µM
same,TGI,DU-145 prostate,> 100 µM
same,TGI,T-47D breast,> 100 µM
same,TGI,BT-549 breast,> 100 µM
same,TGI,MALME-3M melanoma,> 100 µM
same,TGI,TK-10 renal,> 100 µM
same,TGI,IGROV1 ovarian,> 100 µM
same,TGI,OVCAR-3 ovarian,> 100 µM
same,TGI,SN12C renal,> 100 µM
same,TGI,NCI/ADR-RES ovarian,> 100 µM
same,TGI,M14 melanoma,> 100 µM
same,TGI,786-0 renal,> 100 µM
same,TGI,HOP-92 NSCLC,> 100 µM
same,TGI,RXF 393 renal,> 100 µM
same,TGI,SK-OV-3 ovarian,> 100 µM
same,TGI,SF-539 CNS,> 100 µM
same,TGI,PC-3 prostate,> 100 µM
same,TGI,LOX IMVI melanoma,> 100 µM
same,TGI,UACC-62 melanoma,> 100 µM
same,TGI,COLO 205 colon,> 100 µM
same,TGI,A549 NSCLC,> 100 µM
same,TGI,OVCAR-8 ovarian,> 100 µM
same,TGI,MDA-MB-435,> 100 µM
same,TGI,K-562 leukemia,> 100 µM
same,TGI,SF-268 CNS,> 100 µM
same,TGI,EKVX NSCLC,> 100 µM
same,TGI,MOLT-4 leukemia,> 100 µM
same,TGI,SW-620 colon,> 100 µM
same,TGI,HCT-116 colon,> 100 µM
same,TGI,RPMI-8226 leukemia,> 100 µM
same,TGI,HT29 colon,> 100 µM
same,TGI,OVCAR-5 ovarian,> 100 µM
same,TGI,MDA-N,> 100 µM
same,TGI,HL-60(TB) leukemia,> 100 µM
same,TGI,CAKI-1 renal,> 100 µM
same,TGI,HS 578T breast,> 100 µM
same,TGI,KM12 colon,> 100 µM
same,TGI,NCI-H522 lung,> 100 µM
same,TGI,NCI-H23 lung,> 100 µM
same,TGI,NCI-H460 lung,> 100 µM
same,TGI,SNB-75 CNS,> 100 µM
same,TGI,U251 CNS,> 100 µM
same,TGI,MDA-MB-231 breast,> 100 µM
same,TGI,NCI-H226 lung,> 100 µM
